From ChEMBL document CHEMBL3784916, “Synthesis and anticancer activity of novel fluorinated asiatic acid derivatives” (Eur J Med Chem, 2016)

What was measured:
MIA PaCa-2 = assay: (§1) Cytotoxicity against human MIAPaCa2 cells after 72 hrs by MTT assay; format: functional, cell-based
[1] = as §1; format: functional, cell-based; conditions: MIA PaCa-2, 72 h
HeLa = assay: Cytotoxicity against human HeLa cells after 72 hrs by MTT assay; format: functional, cell-based
A-375 = assay: Cytotoxicity against human A375 cells after 72 hrs by MTT assay; format: functional, cell-based; conditions: for IC50: A-375, 72 h
PC-3 = assay: (§2) Cytotoxicity against human PC3 cells after 72 hrs by MTT assay; format: functional, cell-based
MCF7 = assay: Cytotoxicity against human MCF7 cells after 72 hrs by MTT assay; format: functional, cell-based; conditions: for IC50: MCF7, 72 h
Jurkat = assay: Cytotoxicity against human Jurkat cells after 72 hrs by XTT assay; format: functional, cell-based
HT-29 = assay: Cytotoxicity against human HT-29 cells after 72 hrs by MTT assay; format: functional, cell-based; conditions: HT-29, 72 h
BJ = assay: Cytotoxicity against human BJ cells after 72 hrs by MTT assay; format: cell-based; conditions: for IC50: Homo sapiens, BJ; for Activity: human, bj
[2] = as §2; format: functional, cell-based; conditions: PC-3, 72 h

SMILES	Activity (MIA PaCa-2)	IC50 [1] [nM]	IC50 (HeLa) [nM]	Activity (A-375)	IC50 (A-375) [nM]	Activity (PC-3)	Activity (MCF7)	IC50 (MCF7) [nM]	Activity (Jurkat)	IC50 (HT-29) [nM]	IC50 (BJ) [nM]	IC50 [2] [nM]	IC50 (Jurkat) [nM]	Activity (BJ)
CCCC(=O)OC[C@]1(C)C=C(C=O)[C@@]2(C)[C@H]1CC[C@]1(C)[C@@H]2C[C@@H](F)[C@]23OC(=O)[C@@]4(CC[C@@H](C)[C@H](C)[C@H]42)CC[C@]31C	Dose-dependent effect	1470	950	Dose-dependent effect	1020	Dose-dependent effect	Dose-dependent effect	1400	Dose-dependent effect	1290				
C[C@H]1[C@H](C)CC[C@@]23CC[C@]4(C)[C@](OC2=O)([C@H](F)C[C@@H]2[C@@]5(C)C(C=O)=C[C@@](C)(COC(=O)c6ccccc6)[C@@H]5CC[C@]24C)[C@H]13	Dose-dependent effect	1330	800	Dose-dependent effect	960	Dose-dependent effect	Dose-dependent effect	880	Dose-dependent effect	1050	2240			
C[C@H]1[C@H](C)CC[C@]2(C(=O)O)CC[C@]3(C)C(=CC[C@@H]4[C@@]5(C)C[C@@H](O)[C@H](O)[C@@](C)(CO)[C@@H]5CC[C@]43C)[C@H]12 [ASIATIC ACID]	Dose-dependent effect	50700	52500	Dose-dependent effect	50300	Dose-dependent effect	Dose-dependent effect	68500	Dose-dependent effect	64300	88700	67200	37200	
COC(=O)CN1C(=O)[C@]23CC[C@@H](C)[C@H](C)[C@H]2[C@]12[C@H](F)C[C@@H]1[C@@]4(C)C[C@@H](OC(C)=O)[C@H](OC(C)=O)[C@@](C)(COC(C)=O)[C@@H]4CC[C@@]1(C)[C@]2(C)CC3	Dose-dependent effect		2720	Dose-dependent effect		Dose-dependent effect	Dose-dependent effect		Dose-dependent effect	9230				Dose-dependent effect
CC(=O)OC[C@@]1(C)[C@@H]2CC[C@]3(C)[C@H](C[C@@H](F)[C@]45NC(=O)[C@@]6(CC[C@@H](C)[C@H](C)[C@H]64)CC[C@]53C)[C@@]2(C)C[C@@H](OC(C)=O)[C@@H]1OC(C)=O	Dose-dependent effect		2370	Dose-dependent effect		Dose-dependent effect	Dose-dependent effect		Dose-dependent effect	7500				Dose-dependent effect
